Source: patent US20220107328A1, “METHODS OF TREATING LIVER DISEASES” (Camp4 Therapeutics Corporation, priority 2018, published 2022)

Assays:
[1] = test system: PNPLA5 mRNA in mouse liver; test: High sucrose diet mouse dose response study, liver PNPLA5 mRNA; type: in vivo; conditions: HS diet mice, 6 hours post dose
Method: C57BL/6J mice were divided into 14 groups. Each group had 6 male mice. All mice were given an HS diet at night on a synchronized schedule. […] The animals received no food at night on Day 10.
Mouse liver tissues were pulverized in liquid nitrogen and aliquoted into small microtubes. TRIzol (Invitrogen Cat #15596026) was added to the tubes to facilitate cell lysis from tissue samples. The TRIzol solution containing the disrupted tissue was then centrifuged and the supernatant phase was collected. Total RNA was extracted from the supernatant using Qiagen RNA Extraction Kit (Qiagen Cat #74182) and the target mRNA levels were analyzed using qRT-PCR. mRNA levels for PNPLA3, PNPLA5, COL1A1, and PCSK9 were assessed.

[2] = test system: phosphorylated S6 (pS6/S6); test: Western blot of phosphorylated S6 in human hepatocytes; type: cell-based; conditions: 3 μM; for phosphorylated S6 (pS6/S6) over time (in words): 35 min to 20 hrs, relative to DMSO control; for pS6/S6: human hepatocytes, mTORC1 pathway, time point not stated
Method: (§1) Levels of phosphorylated S6, AKT, and NDRG1 proteins were determined as compared to total S6, AKT, and NDRG1 protein. PNPLA3 mRNA expression was quantified and normalized to housekeeping gene GUSB.

[3] = test system: phosphorylated AKT (pAKT/AKT); test: Western blot of phosphorylated AKT in human hepatocytes; type: cell-based; conditions: 3 μM; for phosphorylated AKT (pAKT/AKT) over time (in words): 35 min to 20 hrs, relative to DMSO control; for pAKT (473)/AKT: human hepatocytes, mTORC2 pathway, time point not stated
Method: as §1

[4] = Serum glucose quantification in mice; type: in vivo, mouse
Method: Mouse 7-8 week old C57BL/6J mice were divided into 9 groups. Each group had 8 male mice. All mice were given a high sucrose diet for 10 days (Diet no. 901683; 74% kCal from sucrose. […] Food was removed at the start of the light cycle, about 7 am, except on the last day, when food was left in the cage until termination. On day 7-10, mice were administered daily (QD) via oral gavage, candidate compounds at a volume of 10 mL/kg with the compound in vehicle solution (0.5% methylcellulose/0.2% tween20). Vehicle alone was administered to control group 1. OSI-027 was administered at 25 mg/kg, 10 mg/kg, 5 mg/kg, and 2 mg/kg to groups 2-5. […] The treatment was administered in the evening on Days 7 to 10 and in the morning on Day 11, starting at 5 am. On Day 11, mice were terminated 4 hours post last dose at 9 am, for a total of 5 doses of each candidate compound. Mice were weighed 2×/week until Day 11. Liver and blood samples were collected after mice were terminated. Liver samples were process for mRNA extraction as previously described. Blood samples were processed for serum collection. […] Serum glucose levels were measured in a single-reagent coupled-enzyme assay, against a glucose standard curve, colorimetrically. The glucose assay reagent was prepared as follows: one capsule of glucose oxidase/peroxidase (Sigma, cat #G3660-1CAP) was dissolved in 19.6 ml of deionized water. Separately, one vial of O-Dianisidine reagent (Sigma, cat #D2679) was dissolved in 0.5 ml of deionized water, 0.4 ml of the O-Dianisidine reagent was added into the enzyme mix to make 20 ml of 2× Glucose assay reagent. The glucose assay reagent was made fresh prior to running the assay. […] A no glucose control was included as a reagent blank. […] The reaction was incubated at 37° C. for 30 min. 100 μl of 2N sulfuric acid was then added to quench the reaction. The color developed was read spectrophotometrically at 540 nm. The amount of glucose in the samples were determined based on the parameters of the linear fit obtained from the glucose standard curve.

[5] = Serum insulin quantification in mice (ELISA); type: in vivo, mouse
Method: Mouse 7-8 week old C57BL/6J mice were divided into 9 groups. Each group had 8 male mice. All mice were given a high sucrose diet for 10 days (Diet no. 901683; 74% kCal from sucrose. […] Food was removed at the start of the light cycle, about 7 am, except on the last day, when food was left in the cage until termination. On day 7-10, mice were administered daily (QD) via oral gavage, candidate compounds at a volume of 10 mL/kg with the compound in vehicle solution (0.5% methylcellulose/0.2% tween20). Vehicle alone was administered to control group 1. OSI-027 was administered at 25 mg/kg, 10 mg/kg, 5 mg/kg, and 2 mg/kg to groups 2-5. […] The treatment was administered in the evening on Days 7 to 10 and in the morning on Day 11, starting at 5 am. On Day 11, mice were terminated 4 hours post last dose at 9 am, for a total of 5 doses of each candidate compound. Mice were weighed 2×/week until Day 11. Liver and blood samples were collected after mice were terminated. Liver samples were process for mRNA extraction as previously described. Blood samples were processed for serum collection. […] Serum insulin levels in mouse samples were quantified using an ELISA kit purchased from Crystal Chem (Catalog #90080), per the manufacturer's instructions.

[6] = test system: phosphorylated 4EBP1 (p4EBP1c (37/46)/4EBP1c); test: Western blot of phosphorylated 4EBP1 in human hepatocytes; type: cell-based; conditions: 3 μM, mTORC1 pathway, time point not stated
COL1A1 mRNA = test: qRT-PCR of COL1A1 mRNA in human primary hepatic stellate cells; type: cell-based; conditions: 3 μM, relative to GAPDH
[7] = test system: triglyceride content in HepG2 cells; test: AdipoRed staining and triglyceride quantification of lipid droplet fraction in HepG2 cells; type: cell-based; conditions: 72 hours; for TG (nmol/ug protein) (±Standard Deviation): lipid droplet fraction
Method: HepG2 cells were treated with OSI-027 as described in Example 1. DMSO was used as a control. After treatment, the cells were stained with the AdipoRedTM Assay Reagent (cat #PT-7009) according to the manufacturer's instructions. Parallel treatment samples were processed for triglyceride quantification. For triglyceride quantification, HepG2 cells were treated with OSI-027 for 72 hours. Cells were collected and the lipid droplet (LD) fraction of the cell lysate enriched using the lipid droplet isolation kit (Cell Biolabs Inc., #[…]) per the manufacturer's instructions. The triglyceride content of the LD-enriched fraction measured using a Triglyceride Quantification Kit (Biovision Inc., #K622) per manufacturer's protocol, with a fluorimetric read-out.

PCSK9 mRNA = test: qRT-PCR of PCSK9 mRNA in primary hepatocytes; type: cell-based, human; conditions: donor 4178, 3 μM, relative to GUSB
[8] = test system: mTOR signaling of phospho-4E-BP1; conditions: cited from earlier work

Row | SMILES | PNPLA5 liver mRNA, dose titration (in words) [1] | phosphorylated S6 (pS6/S6) over time (in words) [2] | pS6/S6 [2] | phosphorylated AKT (pAKT/AKT) over time (in words) [3] | pAKT (473)/AKT [3] | serum glucose (in words) ([4]; 1 mg/kg) | serum glucose (in words) ([4]; 10 mg/kg, 5 mg/kg, and 2 mg/kg) | serum insulin (in words) ([5]; 1 mg/kg) | serum insulin (in words) ([5]; 10 mg/kg, 5 mg/kg, and 2 mg/kg) | p4EBP1c (37/46)#/4EBP1c [6] | Primary Stellate cells COL1A1 (fold change in mRNA expression) (COL1A1 mRNA) | TG (nmol/ug protein) (±Standard Deviation) ([7]; 0.33 μM) | TG (nmol/ug protein) (±Standard Deviation) ([7]; 1 μM) | triglyceride content (in words) [7] | Primary Hepatocytes 4178 PCSK9 (fold change in mRNA expression) (PCSK9 mRNA) | serum glucose (in words) ([4]; 25 mg/kg) | serum insulin (in words) ([5]; 25 mg/kg) | IC50 [8] [nM]
1 | COc1ccc(-c2cc3c(C)nc(N)nc3n([C@H]3CC[C@H](OCCO)CC3)c2=O)cn1 [PF-04691502] | dose dependent decrease in PNPLA3 and PNPLA5 mRNA | decreased at 1 hour | 0.06 | decreased at 20 hours | 0.06 | moderate increased insulin and glucose levels | significant serum glucose and serum insulin increases | moderate increases in serum insulin | significant serum glucose and serum insulin increases | 0.45 |  |  |  |  |  |  |  | 
2 | COc1cccc2cc(-c3nc([C@H]4CC[C@H](C(=O)O)CC4)n4ncnc(N)c34)[nH]c12 [OSI-027] | dose dependent decrease | decreased at 1 hour | 0.06 | decreased at 4.5 hours | 0.06 |  | no significant changes in serum glucose or serum insulin levels |  | no significant changes in serum glucose or serum insulin levels | 0.43 | 0.51 | 0.24 ± 0.02828 | 0.235 ± 0.03535 | reduced triglyceride content in HepG2 cells | 0.69 | significant increased | significant increased | 1000
